Experimental findings from patent US8143426B2, “IAP inhibitors” (TetraLogic Pharmaceuticals Corporation, priority 2006, dated 2012) are described below.

A value given as a limit tells only on which side of the number the result lay.

For one assay, the target named is T1, XIAP BIR3 (Homo sapiens, UniProt P98170).
T1 construct: 40 nM of an IAP-BIR3
T1 sequence (P98170 241-356 limits assumed): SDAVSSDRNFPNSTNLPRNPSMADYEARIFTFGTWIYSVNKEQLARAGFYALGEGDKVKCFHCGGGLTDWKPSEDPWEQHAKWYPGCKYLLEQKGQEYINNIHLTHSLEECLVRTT
The experiment in a line: Fluorescence polarization binding of IAP antagonists to IAP-BIR3 (competition with AbuRPF-K(5-Fam)-NH2). Conditions: Table 1, monomeric IAP antagonists (sugar-modified). As to the method:
The binding affinity of illustrative compounds of the present invention to an IAP was determined substantially as described by Nikolovska-Coleska, Z. et. al. (Analytical Biochemistry (2004), vol. 332:261-273) using a variety of fluorogenic substrates and is reported as a Kd value. Briefly, various concentrations of IAP antagonists were mixed with 5 nM fluorescently labeled peptide (AbuRPF-K(5-Fam)-NH2) and 40 nM of an IAP-BIR3 for 15 min at RT in […] of 0.1M Potassium Phosphate buffer, pH 7.5 containing […] bovine g-globulin. Following incubation, the polarization values (mP) were measured on a Victor2V using a 485 nm excitation filter and a 520 nm emission filter. IC50 values were determined from the plot using nonlinear least-squares analysis using GraphPad Prism.
A word on the Kd: it is a measure of binding affinity in units of concentration. Lower therefore signals higher affinity. As for `CN[C@@H](C)C(=O)N[C@H](C(=O)N1CCC[C@H]1Cc1c(-c2ccc(F)cc2)n(C2O[C@@H](C)[C@@H](O)[C@@H](O)[C@@H]2O)c2cc(F)ccc12)[C@@H](C)OC` (some centres unmarked) [O], the equilibrium dissociation constant (Kd) is below 100 nM.

Compound `CNC(C)C(=O)NC(C(=O)N1CC(O)CC1Cc1c(-c2ccc(F)cc2)n(C2OC(C)C(O)C(O)C2O)c2cc(F)ccc12)C(C)OC` (centres unmarked) [U] came in with a Kd below 100 nM.

As for `CN[C@@H](C)C(=O)N[C@H](C(=O)N1CCC[C@H]1Cc1cn(C2OC[C@@H](O)[C@H](O)[C@H]2O)c2cc(F)ccc12)C(C)(C)C` (some centres unmarked) [N], the Kd was below 100 nM. On the same count and under the same terms, next, `CNC(C)C(=O)NC(C(=O)N1CCCC1Cc1cn(C2OC(C)C(O)C(O)C2O)c2cc(F)ccc12)C1CCCCC1` (centres unmarked) [G]: below 100 nM.

In turn, `CNC(C)C(=O)NC(C(=O)N1CCCC1Cc1cn(C2OC(C)C(O)C(O)C2O)c2cc(F)ccc12)C(C)C` (centres unmarked) [H] displayed a Kd below 100 nM. As to `CNC(C)C(=O)NC(C(=O)N1CCCC1Cc1cn(C2OC(C)C(O)C(O)C2O)c2cc(F)ccc12)C(C)(C)C` (centres unmarked) [F], the Kd is below 100 nM. As to `CNC(C)C(=O)NC(C(=O)N1CC(O)CC1Cc1c(-c2ccc(F)cc2)n(C2OC(C)C(O)C(O)C2O)c2cc(F)ccc12)C(C)(C)C` (centres unmarked) [T], the Kd was below 100 nM. Same read-out and setting: next, `CN[C@@H](C)C(=O)N[C@H](C(=O)N1CCC[C@H]1Cc1c(-c2ccc(F)cc2)n(C2OC[C@@H](O)[C@H](O)[C@H]2O)c2cc(F)ccc12)C(C)C` (some centres unmarked) [B]: below 100 nM; `CNC(C)C(=O)NC(C(=O)N1CCCC1Cc1c(-c2ccc(F)cc2)n(C2OCC(O)C(O)C2O)c2cc(F)ccc12)C(C)(C)C` (centres unmarked) [Compound A]: below 100 nM.

The same assay, now with this note: Table 2, dimeric IAP antagonists.
With `CN[C@@H](C)C(=O)N[C@H](C(=O)N1CCC[C@H]1Cc1c(-c2c(C[C@@H]3CCCN3C(=O)[C@@H](NC(=O)[C@H](C)NC)C(C)C)c3ccc(F)cc3n2C2OC[C@@H](O)[C@H](O)[C@H]2O)[nH]c2cc(F)ccc12)C(C)C` (some centres unmarked) [Y], the dissociation constant (Kd) was below 100 nM. For `CNC(C)C(=O)NC(C(=O)N1CCCC1Cc1c(-c2c(CC3CCCN3C(=O)C(NC(=O)C(C)NC)C(C)OC)c3ccc(F)cc3n2C2OC(C)C(O)C(O)C2O)[nH]c2cc(F)ccc12)C(C)OC` (centres unmarked) [EE], the dissociation constant (Kd) was below 100 nM. Take `CNC(C)C(=O)NC(C(=O)N1CC(O)CC1Cc1c(-c2c(CC3CC(O)CN3C(=O)C(NC(=O)C(C)NC)C(C)OC)c3ccc(F)cc3n2C2OC(C)C(O)C(O)C2O)[nH]c2cc(F)ccc12)C(C)OC` (centres unmarked) [FF]: the dissociation constant Kd is below 100 nM. Regarding `CNC(C)C(=O)NC(C(=O)N1CCCC1Cc1c(-c2c(CC3CCCN3C(=O)C(NC(=O)C(C)NC)C(C)C)c3cc(F)ccc3n2C2OC(C)C(O)C(O)C2O)[nH]c2ccc(F)cc12)C(C)C` (centres unmarked) [DD], the dissociation constant Kd is below 100 nM. As for `CN[C@@H](C)C(=O)N[C@H](C(=O)N1CCC[C@H]1Cc1c(-c2c(C[C@@H]3CCCN3C(=O)[C@@H](NC(=O)[C@H](C)NC)C(C)C)c3cc(F)ccc3n2C2O[C@H](CO)[C@H](O)[C@H](O)[C@H]2O)[nH]c2ccc(F)cc12)C(C)C` (some centres unmarked) [AA], the Kd was below 100 nM. In turn, `CC(C)C(NC(=O)CN)C(=O)N1CCCC1Cc1c(-c2c(CC3CCCN3C(=O)C(NC(=O)CN)C(C)C)c3ccc(F)cc3n2C2OC(C)C(O)C(O)C2O)[nH]c2cc(F)ccc12` (centres unmarked) [W] returned a Kd of 100 to 1000 nM. With `CN[C@@H](C)C(=O)N[C@H](C(=O)N1CCCC1Cc1c(-c2c(C[C@@H]3CCCN3C(=O)[C@@H](NC(=O)[C@H](C)NC)C(C)C)c3ccc(F)cc3n2C2O[C@@H](C)[C@@H](O)[C@@H](O)[C@@H]2O)[nH]c2cc(F)ccc12)C(C)C` (some centres unmarked) [V], the Kd is below 100 nM. The compound `CN[C@@H](C)C(=O)N[C@H](C(=O)N1CCC[C@H]1Cc1c(-c2c(C[C@@H]3CCCN3C(=O)[C@@H](NC(=O)[C@H](C)NC)C(C)C)c3cc(F)ccc3n2C2O[C@H](CO)[C@@H](O)[C@H](O)[C@H]2O)[nH]c2ccc(F)cc12)C(C)C` (some centres unmarked) [CC] returned a Kd below 100 nM.

Still in this assay, the particulars now being: Table 3, monomeric IAP antagonists (piperidine-substituted).
In the case of `CN[C@@H](C)C(=O)N[C@H](C(=O)N1C[C@@H](O)C[C@H]1Cc1c(-c2ccc(F)cc2)n(C2CCNCC2)c2cc(F)ccc12)[C@@H](C)OC` [PP], the Kd is below 100 nM. In the case of `CN[C@@H](CO)C(=O)N[C@H](C(=O)N1C[C@@H](O)C[C@H]1Cc1c(-c2ccc(F)cc2)n(C2CCNCC2)c2cc(F)ccc12)C(C)(C)C` [NN], the Kd lay in the range of 100 to 1000 nM. Consider `CN[C@H](C(=O)N[C@H](C(=O)N1CCC[C@H]1Cc1c(-c2ccc(F)cc2)n(C2CCNCC2)c2cc(F)ccc12)[C@@H](C)OC)C1CC1` [KK], for which the Kd fell in the range of 100 to 1000 nM. On to `CN[C@H](C(=O)N[C@H](C(=O)N1C[C@@H](O)C[C@H]1Cc1c(-c2ccc(F)cc2)n(C2CCNCC2)c2cc(F)ccc12)C(C)(C)C)C1CC1` [OO], for which the Kd is above 10000 nM. The same measure, in the same setting: next, `CN[C@@H](C)C(=O)N[C@H](C(=O)N1C[C@@H](O)C[C@H]1Cc1c(-c2ccc(F)cc2)n(C2CCNCC2)c2cc(F)ccc12)C(C)(C)C` [LL]: below 100 nM; `CCN[C@@H](C)C(=O)N[C@H](C(=O)N1C[C@@H](O)C[C@H]1Cc1c(-c2ccc(F)cc2)n(C2CCNCC2)c2cc(F)ccc12)C(C)(C)C` [MM]: 100 to 1000 nM; `CCN[C@@H](C)C(=O)N[C@H](C(=O)N1C[C@@H](O)C[C@H]1Cc1c(-c2ccc(F)cc2)n(C2CCNCC2)c2cc(F)ccc12)[C@@H](C)OC` [QQ]: below 100 nM.

Compound `CC[C@H](NC)C(=O)N[C@H](C(=O)N1CCC[C@H]1Cc1c(-c2ccc(F)cc2)n(C2CCNCC2)c2cc(F)ccc12)[C@@H](C)OC` [JJ] showed a Kd below 100 nM.

The compound `CC[C@H](NC)C(=O)N[C@H](C(=O)N1C[C@@H](O)C[C@H]1Cc1c(-c2ccc(F)cc2)n(C2CCNCC2)c2cc(F)ccc12)[C@@H](C)OC` [RR] had a dissociation constant (Kd) below 100 nM. Compound `CN[C@H](C(=O)N[C@H](C(=O)N1C[C@@H](O)C[C@H]1Cc1c(-c2ccc(F)cc2)n(C2CCNCC2)c2cc(F)ccc12)[C@@H](C)OC)C1CC1` [SS] returned a Kd of 100 to 1000 nM. `CN[C@@H](C)C(=O)N[C@H](C(=O)N1CCCC1Cc1c(-c2ccc(F)cc2)n(C2CCNCC2)c2cc(F)ccc12)C(C)(C)C` (some centres unmarked) [HH] returned a Kd below 100 nM. Turning to `CN[C@@H](C)C(=O)N[C@H](C(=O)N1CCC[C@H]1Cc1c(-c2ccc(F)cc2)n(C2CCNCC2)c2cc(F)ccc12)[C@@H](C)OC` [II], the Kd is below 100 nM.
